Results published in patent publication US12042481B2, “Use of (1R,5S)-(+)-1-(naphthalen-2-yl)-3-azabicyclo[3.1.0]hexane in the treatment of conditions affected by monoamine neurotransmitters” (priority 2011, dated 2024).

Legend:
[1] = system: 6-OHDA-lesioned juvenile rats; assay: Locomotor activity of juvenile rats with neonatal 6-OHDA lesions (model of ADHD); format: in vivo, rat
Procedure: The behavioral effects of (1R,5S)-(+)-1-(naphthalen-2-yl)-3-azabicyclo[3.1.0]hexane were evaluated in a model of ADHD, which can be simulated in juvenile rates with neonatal 6-hydroxydopamine (6-OHDA) lesions (Davids et al., 2003). In this animal model, the NE neurons are protected from the neurotoxic effects of 6-OHDA by pretreatment with the NE transporter inhibitor desipramine, so the NE system is largely intact and can respond to NE transporter inhibitors (Davids et al., 2002). Furthermore, the 6-OHDA lesions produce learning and memory deficits in learning models including the T maze, and active and passive avoidance tasks (Shaywitz et al., 1978; Wool et al., 1987; Takasuna and Iwasaki, 1996). Performance in these learning and memory models was improved by administration of stimulants (Shaywitz et al., 1978; Wool et al., 1987). Thus, this model incorporates both hyperactivity and learning deficits found in ADHD.
(§1) Methods of lesioning neonatal rats with 6-OHDA were carried out as detailed in Zhang et al. (2001). Briefly, on postnatal day 1 (PD 1), male Sprague-Dawley rat pups were randomly assigned to a nursing dam (10/dam). On PD 5, pups receive a subcutaneous injection of 25 mg/kg desipramine hydrochloride to protect noradrenergic neurons, followed in 45 min. by randomly assigned intracisternal injection of vehicle or 6-OHDA hydrobromide (100 μg free base) under hypothermic anesthesia. Pups were returned to nursing dams immediately after the intracranial injections. Locomotor activity was monitored individually for 90 min. in the periadolescent period on PD 25, using a microcomputer controlled infrared photobeam activity monitoring system. Locomotor activity was defined as breaking of consecutive photobeams and the activity accumulated in 5 minute bins. Behavioral testing was conducted in a novel environment (transparent plastic cages containing fresh bedding) within a grid of horizontal infrared beams. Each dose of (1R,5S)-(+)-1-(naphthalen-2-yl)-3-azabicyclo[3.1.0]hexane (1, 3 and 10 mg/kg) or methylphenidate (3 mg/kg) was dissolved in saline and given i.p. immediately prior to testing. The effects of sham versus 6-OHDA lesions on dopamine neurons in rats were quantified as decrements of DA transporters labeled with [31-1]2-(3-carbomethoxy-3-β-[4′-iodophenyl]tropane ([^3H]β-CIT), a selective DA transporter radioligand (Kula et al. 1999). Sections were preincubated (60 min., room temp [RT]) in 50 mM Tris-HCl buffer (pH 7.7) containing 120 mM NaCl and 4 mM MgCl2, then in fresh buffer (60 min) containing 2 nM [3H](3-CIT. Nonspecific binding was defined with 1 μM GBR-12909. Slides were then washed (2×5 min) in ice-cold buffer, dipped in ice-cold water, and air-dried. Radiolabeled slides and calibrated [^3H]standards were exposed to [^3H]sensitive films for 10-14 d at 4° C. Tritium-sensitive Hyperfilms were developed and fixed in Kodak D-19 for 5 min. at RT. Images were quantified with a computer-controlled MCID image analyzer. Brain regions of interest were outlined and their optical density was measured with two sections representing total binding, with two samples representing nonspecific binding. Optical density of sampled regions was measured and the amount of ligand bound within each area was calculated as nCi/mg tissue. Mean values of non-specific binding in each region were subtracted from the mean total binding to determine specific binding, which was converted into fmol/mg of radioligand bound.

dopamine transporters = assay: Autoradiographic binding of [3H]β-CIT to dopamine transporters in juvenile rat brain after neonatal 6-OHDA lesioning; format: in vivo; conditions: for specific binding of [3H]β-CIT to dopamine transporters, 6-OHDA Lesioned: mean ± SEM
Procedure: as §1

| Structure (SMILES) | locomotor activity (FIGS. 7A and 7B) ([1]; 6-OHDA-lesioned juvenile rats at PD25, p<0.05 versus vehicle) | time over which locomotor activity was significantly attenuated ([1]; methylphenidate 3 mg/kg i.p., PD 25, 90 min test) | % Sham Lesion, binding of [3H]β-CIT (dopamine transporters; lateral caudate-putamen) | specific binding of [3H]β-CIT to dopamine transporters, 6-OHDA Lesioned (dopamine transporters; lateral caudate-putamen) | % Sham Lesion, binding of [3H]β-CIT (dopamine transporters; medial caudate-putamen) | specific binding of [3H]β-CIT to dopamine transporters, 6-OHDA Lesioned (dopamine transporters; medial caudate-putamen) | % Sham Lesion, binding of [3H]β-CIT (dopamine transporters; nucleus accumbens septi) | specific binding of [3H]β-CIT to dopamine transporters, 6-OHDA Lesioned (dopamine transporters; nucleus accumbens septi) | cumulative locomotor score ([1]; 6-OHDA-lesioned rats, PD 25, 90 minute testing period) | fold difference of cumulative locomotor score versus sham-lesioned rats ([1]; PD 25, 90 minute testing period, p<0.001) |
| --- | --- | --- | --- | --- | --- | --- | --- | --- | --- | --- |
| COC(=O)C(c1ccccc1)C1CCCCN1 (stereo not shown) [methylphenidate, reference compound] | reduced locomotor activity | 90 min | – | – | – | – | – | – | – | – |
| NCCc1cc(O)c(O)cc1O [6-OHDA, 6-hydroxydopamine] | – | – | 25.7% | 30.9 ± 2.4 fmol/mg tissue | 22.2% | 24.9 ± 3.5 fmol/mg tissue | 32.2% | 22.8 ± 1.8 fmol/mg tissue | 2758±3.0 | 9 fold |
